One experiment addresses T1, recombinant human SK (Homo sapiens, UniProt Q9NYA1).
T1 construct: GST (glutathione-S-transferase) (N); made in house; host or cells: bacteria (pGEX bacterial expression vector)
Nature of the experiment: Recombinant human SK activity assay ([3H]sphingosine to [3H]S1P). The class given is biochemical. The following applies: Human SK incubated with 6 μg/mL of compound; percentage of SK activity inhibited. Here is the method: SK activity is measured by incubation of the recombinant SK with [^3H]sphingosine and 1 mM ATP under defined conditions, followed by extraction of the assay mixture with chloroform:methanol under basic conditions. […] Radioactivity in aliquots of the aqueous phase is then quantified as a measure of [^3H]S1P formation.
(§1) Human SK was incubated with 6 μg/mL of the indicated compounds, and then assayed for activity as described above. Values in the column labeled “Recombinant SK (% inhibition)” represent the percentage of SK activity that was inhibited. MDA-MB-231 cells were incubated with 20 μg/mL of the indicated compounds and then assayed for endogenous SK activity as indicated above. Values in the column labeled “Cellular S1P (% inhibition)” represent the percentage of S1P production that was inhibited. Additionally, MDA-MB-231 cells were treated with varying concentration of certain compounds and the amount of S1P produced by the cells was determined. Values in the column labeled “Cellular S1P IC50 (μM)” represent the concentration of compound required to inhibit the production of S1P by 50%. ND=not determined.

The subject of experiment [1] is endogenous SK activity in MDA-MB-231 cells. As to the kind of experiment: Cellular S1P production (endogenous SK activity) in MDA-MB-231 cells. The format is cell-based. The following applies: Homo sapiens; for inhibition at 20 µg/mL: MDA-MB-231, MDA-MB-231 cells incubated with 20 μg/mL of compound, percentage of S1P production inhibited; for IC50: MDA-MB-231 cells, varying concentrations, concentration inhibiting S1P production by 50%. Here is the method: as §1

Usually inhibition stands for the share of the control response that was lost under treatment. For orientation: IC50 means the point on the concentration scale where inhibition reaches its midpoint.

T1 sequence (Q9NYA1 whole entry): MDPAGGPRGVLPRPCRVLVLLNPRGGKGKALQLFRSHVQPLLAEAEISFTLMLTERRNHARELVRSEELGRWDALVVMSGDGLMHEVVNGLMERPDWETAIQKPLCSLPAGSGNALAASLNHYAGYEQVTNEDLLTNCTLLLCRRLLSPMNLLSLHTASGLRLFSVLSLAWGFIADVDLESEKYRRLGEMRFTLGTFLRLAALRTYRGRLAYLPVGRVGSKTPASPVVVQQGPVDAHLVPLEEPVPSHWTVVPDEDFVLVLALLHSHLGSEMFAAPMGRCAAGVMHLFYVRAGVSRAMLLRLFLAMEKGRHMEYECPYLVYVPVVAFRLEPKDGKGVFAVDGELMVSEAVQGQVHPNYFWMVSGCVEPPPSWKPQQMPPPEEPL

Take “4-(4-Chloro-phenyl)-thiazole-2-carboxylic acid 4-phenoxy benzylamide [B54]”: on recombinant human SK, the “Recombinant SK (% inhibition)” value came out at 25%.
`O=C(NC1CC1)C12CC3CC(C1)CC(c1ccc(Cl)cc1)(C3)C2` [A2, 3-(4-Chloro-phenyl)-adamantane-1-carboxylic acid cyclopropylamide]: at recombinant human SK, the inhibition at 6 µg/mL stood at 0%.
As to `CCSCCNC(=O)C12CC3CC(C1)CC(c1ccc(Cl)cc1)(C3)C2` [A3, 3-(4-Chloro-phenyl)-adamantane-1-carboxylic acid (2-ethylsulfanyl-ethyl)-amide], the inhibition at 6 µg/mL on recombinant human SK was determined as 6%.
For the compound `CSc1ccc(CNC(=O)C23CC4CC(C2)CC(c2ccc(Cl)cc2)(C4)C3)cc1` [A14, 3-(4-Chloro-phenyl)-adamantane-1-carboxylic acid 4-methylsulfanyl-benzylamide], the inhibition at 6 µg/mL at recombinant human SK is 19%.
Take `O=C(NCc1ccc(C(F)(F)F)cc1)C12CC3CC(C1)CC(c1ccc(Cl)cc1)(C3)C2` [A16, 3-(4-Chloro-phenyl)-adamantane-1-carboxylic acid 4-trifluoromethyl-benzylamide]: the inhibition at 6 µg/mL on recombinant human SK was determined as 8%.
On to `O=C(NCc1cc(C(F)(F)F)cc(C(F)(F)F)c1)C12CC3CC(C1)CC(c1ccc(Cl)cc1)(C3)C2` [A17, 3-(4-Chloro-phenyl)-adamantane-1-carboxylic acid 3,5-bis-trifluoromethyl-benzylamide], for which the inhibition at 6 µg/mL at recombinant human SK was found to be 56%.
Take `O=C(NCc1cc(F)cc(C(F)(F)F)c1)C12CC3CC(C1)CC(c1ccc(Cl)cc1)(C3)C2` [A18, 3-(4-Chloro-phenyl)-adamantane-1-carboxylic acid 3-fluoro-5-trifluoromethyl-benzylamide]: on recombinant human SK, the inhibition at 6 µg/mL was found to be 0%.
`O=C(NCc1cc(F)cc(F)c1)C12CC3CC(C1)CC(c1ccc(Cl)cc1)(C3)C2` [A20, 3-(4-Chloro-phenyl)-adamantane-1-carboxylic acid 3,5-difluoro-benzylamide]: on recombinant human SK, the inhibition at 6 µg/mL was determined as 0%.
For `O=C(NCc1ccc(F)c(F)c1)C12CC3CC(C1)CC(c1ccc(Cl)cc1)(C3)C2` [A21, 3-(4-Chloro-phenyl)-adamantane-1-carboxylic acid 3,4-difluoro-benzylamide], the inhibition at 6 µg/mL at recombinant human SK came to 65%.
Regarding `O=C(NCc1cc(F)c(F)c(F)c1)C12CC3CC(C1)CC(c1ccc(Cl)cc1)(C3)C2` [A22, 3-(4-Chloro-phenyl)-adamantane-1-carboxylic acid 3,4,5-trifluoro-benzylamide], the inhibition at 6 µg/mL on recombinant human SK is 56%.
Compound `O=C(NCc1cccc(OC(F)(F)F)c1)c1nc(-c2ccc(Cl)cc2)cs1` [B43, 4-(4-Chloro-phenyl)-thiazole-2-carboxylic acid 3-trifluoromethoxy-benzylamide] showed an inhibition at 20 µg/mL in experiment [1] of 0%.
The same measure, in the same setting: for `O=C(NCCc1cccc(Oc2ccccc2)c1)c1nc(-c2ccc(Cl)cc2)cs1` [B44, 4-(4-Chloro-phenyl)-thiazole-2-carboxylic acid [2-(3-phenoxy-phenyl)-ethyl]-amide] the value was 0%; for `CN1CCCC1CCNC(=O)c1nc(-c2ccc(Cl)cc2)cs1` (centres unmarked) [B45, 4-(4-Chloro-phenyl)-thiazole-2-carboxylic acid [2-(1-methyl-pyrrolidin-2-yl)-ethyl]-amide], 0%; for `CN1CCN(NC(=O)c2nc(-c3ccc(Cl)cc3)cs2)CC1` [B46, 4-(4-Chloro-phenyl)-thiazole-2-carboxylic acid (4-methyl-piperazin-1-yl)-amide], 0%.
On to `Clc1ccc(-c2csc(N(CCCc3ccccc3)CCCc3ccccc3)n2)cc1` [B71, [4-(4-Chloro-phenyl)-thiazol-2-yl]-bis-(3-phenyl-propyl)-amine], for which testing at 20 µg/mL in experiment [1] gave an inhibition of 15%.
On to `Clc1ccc(-c2csc(N(Cc3ccccc3)Cc3ccccc3)n2)cc1` [B72, Dibenzyl-[4-(4-chloro-phenyl)-thiazol-2-yl]-amine], for which 20 µg/mL produced 27% inhibition in experiment [1].
As for `O=C(NCCN1CCOCC1)c1nc(-c2ccc(Cl)cc2)cs1` [B76, 4-(4-Chloro-phenyl)-thiazole-2-carboxylic acid (2-morpholin-4-yl-ethyl)-amide], in experiment [1], at 20 µg/mL the inhibition was 81% and 5 µM corresponded to half-maximal inhibition (IC50).
Compound `CN1CCCC1CCNC(=O)c1cccc(-c2ccc(Cl)cc2)c1` (centres unmarked) [B80, 4′-Chloro-biphenyl-3-carboxylic acid [2-(1-methyl-pyrrolidin-2-yl)-ethyl]-amide] showed an inhibition at 20 µg/mL in experiment [1] of 70%.
Compound `O=C(NCc1ccncc1)c1cccc(-c2ccc(Cl)cc2)c1` [B81, 4′-Chloro-biphenyl-3-carboxylic acid (pyridin-4-ylmethyl)-amide] yielded an inhibition at 20 µg/mL in experiment [1] of 14%.
The same measure, in the same setting: for `CN1CCC(NC(=O)c2cccc(-c3ccc(Cl)cc3)c2)CC1` [B82, 4′-Chloro-biphenyl-3-carboxylic acid (1-methyl-piperidin-4-yl)-amide] the value was 67%; for `O=C(Nc1ccc(O)cc1)c1cccc(-c2ccc(Cl)cc2)c1` [B83, 4′-Chloro-biphenyl-3-carboxylic acid (4-hydroxy-phenyl)-amide], 55%; for `O=C(NCCc1ccncc1)c1cccc(-c2ccc(Cl)cc2)c1` [B84, 4′-Chloro-biphenyl-3-carboxylic acid (2-pyridin-4-yl-ethyl)-amide], 76%.
In the case of `O=C(Nc1nc2cc(Cl)ccc2o1)c1ccccc1[N+](=O)[O-]` [B87, N-(5-Chloro-benzooxazol-2-yl)-2-nitro-benzamide], in experiment [1], at 20 µg/mL the inhibition was 64% and the IC50 was 22 µM.
In experiment [1], `O=C(C=Cc1ccccc1)Nc1nc2cc(Cl)ccc2o1` [B88, N-(5-Chloro-benzooxazol-2-yl)-3-phenyl-acrylamide] yielded an inhibition at 20 µg/mL of 46%.
On to `O=C(C=Cc1ccc([N+](=O)[O-])cc1)Nc1nc2cc(Cl)ccc2o1` [B89, N-(5-Chloro-benzooxazol-2-yl)-3-(4-nitro-phenyl)-acrylamide], for which, in experiment [1], 20 µg/mL produced 74% inhibition and half-maximal inhibition (IC50) was put at 5.8 µM.
`C=CCCCCCCCCC(=O)Nc1nc2cc(Cl)ccc2o1` [B90, Undec-10-enoic acid (5-chloro-benzooxazol-2-yl)-amide] gave an inhibition at 20 µg/mL in experiment [1] of 39%.
With `CCCCCCCCCCCCCC(=O)Nc1nc2cc(Cl)ccc2o1` [B91, Tetradecanoic acid (5-chloro-benzooxazol-2-yl)-amide], testing at 20 µg/mL in experiment [1] gave an inhibition of 0%.
In experiment [1], `CCCCCCCCCCCCCCCC(=O)Nc1nc2cc(Cl)ccc2o1` [B92, Hexadecanoic acid (5-chloro-benzooxazol-2-yl)-amide] showed an inhibition at 20 µg/mL of 4%.
The same measure, in the same setting: to `O=C(Nc1ccc(Cl)c(C(F)(F)F)c1)Nc1nc2cc(Cl)ccc2o1` [B93, 1-(5-Chloro-benzooxazol-2-yl)-3-(4-chloro-3-trifluoromethyl-phenyl)-urea] belongs 53%; to `O=C(Nc1ccc(Cl)c(C(F)(F)F)c1)Nc1nc2ccccc2s1` [B94, 1-Benzothiazol-2-yl-3-(4-chloro-3-trifluoromethyl-phenyl)-urea], 13%.
Turning to `O=C(Nc1nc2cc(Cl)ccc2s1)c1ccccc1O` [B96, N-(5-Chloro-benzothiazol-2-yl)-2-hydroxy-benzamide], 20 µg/mL produced 18% inhibition in experiment [1].
On the same count and under the same terms, to `O=C(Nc1nc2cc(Cl)ccc2o1)c1cccc(F)c1` [B97, N-(5-Chloro-benzooxazol-2-yl)-3-fluoro-benzamide] belongs 38%.

These data come from US20120122870A1, “Treatment Of Ischemia-Reperfusion Injury” (MUSC FOUNDATION FOR RESEARCH DEVELOPMENT, priority 2009, published 2012).
